The text below walks through data of article PMC6152678, “In Vitro Comparative Study of the Inhibitory Effects of Mangiferin and Its Aglycone Norathyriol towards UDP-Glucuronosyl Transferase (UGT) Isoforms” (Molecules : A Journal of Synthetic Chemistry and Natural …, 2017).

Structures are written as SMILES.

For series [1], the target named is T1, UGT2B17 (Homo sapiens, UniProt O75795).
T1 construct: purchased BD Gentest Corp. (Woburn, MA, USA); host or cells: baculovirus-infected insect cells
T1 sequence (O75795 24-530): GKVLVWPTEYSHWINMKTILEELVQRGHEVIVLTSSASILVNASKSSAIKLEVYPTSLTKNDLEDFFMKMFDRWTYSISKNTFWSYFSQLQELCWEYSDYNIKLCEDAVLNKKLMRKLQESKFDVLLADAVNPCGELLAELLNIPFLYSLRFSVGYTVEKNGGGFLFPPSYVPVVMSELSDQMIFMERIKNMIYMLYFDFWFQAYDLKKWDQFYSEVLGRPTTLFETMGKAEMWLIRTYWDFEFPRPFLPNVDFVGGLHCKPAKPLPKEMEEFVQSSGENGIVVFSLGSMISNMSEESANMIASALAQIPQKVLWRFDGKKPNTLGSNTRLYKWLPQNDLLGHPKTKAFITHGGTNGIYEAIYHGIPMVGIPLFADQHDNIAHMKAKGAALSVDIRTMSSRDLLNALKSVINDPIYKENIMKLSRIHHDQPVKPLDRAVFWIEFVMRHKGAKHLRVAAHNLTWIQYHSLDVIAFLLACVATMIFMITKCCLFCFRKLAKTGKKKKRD
The experiment in a line: Inhibition of recombinant UGT-catalyzed 4-MU glucuronidation. The conditions noted are these: pH 7.4, probe 4-methylumbelliferone (4-MU), 2000 μM, 100 μM compound, 4-MU probe substrate, negative = activation. The format is biochemical. As to the method: (§1) Sigma-Aldrich (St Louis, MO, USA) provided the following constituents in the incubation mixture: 4-methylumbelliferone (4-MU), 4-methylumbelliferone-β-D-glucuronide (4-MUG), Tris-HCl, 7-hydroxycoumarin, and uridine-diphosphoglucuronic acid (UDPGA) (trisodium salt). All other compounds were of high-performance liquid chromatography (HPLC) grade or of the highest grade commercially available. For enzyme sources, recombinant UGT isoforms expressed in baculovirus-infected insect cells were purchased from BD Gentest Corp. (Woburn, MA, USA), including UGT1A1, 1A3, 1A6, 1A7, 1A8, 1A9, 1A10, 2B4, 2B7, 2B15, and 2B17.
(§2) 4-MU, a nonspecific probe substrate for all the UGT isoforms, was employed to investigate the inhibition of MEF and NIR towards the activity of UGT isoforms. The incubation and analytical methods have been previously described. […] MEF and NIR were dissolved in the DMSO to make a stock solution of 20 mM, and various concentrations of working solutions were prepared through dilution with DMSO. 4-MU was used as a non-selective substrate of UGTs. There was a 5-min pre-incubation step at 37 °C before the reaction was initiated by the addition of UDPGA. 4-MU and inhibitors were previously dissolved in DMSO, and the total concentration of DMSO was 1%. The reactions were continued at 37 °C for 120 min for UGT1A1, UGT1A3, UGT1A10, UGT2B4, UGT2B7, UGT2B15 and UGT2B17, 30 min for UGT1A6, UGT1A7, UGT1A8, and UGT1A9, respectively. Reactions were terminated by the addition of 100 μL acetonitrile with 7-hydroxycoumarin (100 μM) as internal standard. The incubation mixtures were then centrifuged at 12,000 r/min for 10 min. 2 μL supernatant was injected into the UPLC system for analysis. An ACQUITY UPLC System (Waters, Milford, MA, USA) equipped with UV detector was used to analyze the samples, and the separation of all the compounds were carried out using a ACQUITY UPLC® BEH C18 (2.1 × 100 mm, 1.7 μm Waters) at a flow rate of 0.2 mL/min and UV detector at 316 nm. The mobile phase was consisted of ultrapure water containing 0.5% formic acid (A) and acetonitrile (B). The following gradient condition was used: 0–3.5 min, 10–65% B; 3.5–4.0 min, 65% B; 4.0–9.0 min, 10% B. To calculate the standard curve 0.1–100 μM of 4-MUG was used through drawing the peak area ration of 4-MUG/internal standard towards the concentration range of 4-MUG. The curve was linear over this concentration range, with an r^2 value > 0.99.
(§3) The inhibition type and Kinetics were determined for the inhibition of NTR towards UGT1A3, UGT1A7 and UGT1A9. The glucuronidation velocity of 4-MU was determined at multiple concentrations of 4-MU and NTR. Dixon and Lineweaver–Burk plots were employed to determine the inhibition type, and the second plot of the slopes from the Lineweaver–Burk plot versus the compound concentrations was utilized to calculate the Ki value. The determination of IC50 was calculated using Probit analysis in SPSS11.5 (SPSS, Chicago, IL, USA). The Student’s t-test was adopted at a significance level of p < 0.05 to determine statistically significant differences among experimental groups.

Series [2] has as its target T2, UGT1A7 (Homo sapiens, UniProt Q9HAW7).
T2 construct: purchased BD Gentest Corp. (Woburn, MA, USA); host or cells: baculovirus-infected insect cells
T2 sequence (Q9HAW7 26-530): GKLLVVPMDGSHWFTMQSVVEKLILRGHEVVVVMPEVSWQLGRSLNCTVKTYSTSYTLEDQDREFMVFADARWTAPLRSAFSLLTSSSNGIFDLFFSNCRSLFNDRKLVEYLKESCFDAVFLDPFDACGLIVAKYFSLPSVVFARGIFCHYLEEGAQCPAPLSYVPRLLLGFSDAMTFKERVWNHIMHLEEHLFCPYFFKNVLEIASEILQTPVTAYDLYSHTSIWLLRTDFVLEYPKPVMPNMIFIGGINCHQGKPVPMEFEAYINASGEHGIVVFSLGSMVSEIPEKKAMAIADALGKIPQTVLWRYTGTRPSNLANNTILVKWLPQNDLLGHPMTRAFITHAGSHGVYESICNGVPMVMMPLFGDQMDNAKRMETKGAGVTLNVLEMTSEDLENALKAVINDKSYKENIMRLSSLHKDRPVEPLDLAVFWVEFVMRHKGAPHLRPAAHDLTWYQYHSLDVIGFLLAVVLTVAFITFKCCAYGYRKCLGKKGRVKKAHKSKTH
The description is as above. The note with it: for inhibition at 30 min, 100 µM: human, pH 7.4, probe 4-methylumbelliferone (4-MU), 30 μM, 100 μM compound, 4-MU probe substrate, negative = activation. Type of series: biochemical. The procedure: as §1, §2, §3

Turning to `O=c1c2cc(O)c(O)cc2oc2cc(O)c([C@@H]3O[C@H](CO)[C@@H](O)[C@H](O)[C@H]3O)c(O)c12` [MGF, 1,3,6,7-tetrahydroxyxanthone-C-2-β-D-glucoside], in series [1], the inhibition (usually the drop in the measured response relative to a control, in per cent) at 120 min, 100 µM is -106%. Moreover, the inhibition at 30 min, 100 µM in series [2] stood at 26.7%.

For `O=c1c2cc(O)c(O)cc2oc2cc(O)cc(O)c12` [NTR, 1,3,6,7-tetrahydroxyxanthone], the inhibition at 120 min, 100 µM in series [1] was found to be 48.6%. In addition, the IC50 (in general, the midpoint of a concentration-inhibition curve) in series [2] (4-MU glucuronidation, Probit analysis, read-out: IC50 towards UGT1A7) amounted to 4.4 µM. In addition, in series [2] (Dixon plot and Lineweaver-Burk plot), the “inhibition type towards UGT1A7” value is given as “competitively inhibited”. In addition, in series [2], the inhibition at 30 min, 100 µM stood at 94.9%. Moreover, the Ki – broadly, a dissociation constant, usually derived from enzyme kinetics or from competition with a known ligand – in series [2] (second plot of Lineweaver-Burk slopes, read-out: inhibition constant (Ki) towards UGT1A7) amounted to 2 µM.
